# From patent publication US20060216693A1, “Method of screening compounds which inhibit the initiation of the retrotranscription of the rna of virus hiv-1 and means for implementing same” (priority 2003, published 2006)
# Several values for one entry are separate records, joined by “and”; a condition that tells them apart may be missing. Equal values may be shown once.
# Experiments:
# [1] = test system: HIV-1 reverse transcriptase; conditions: 5 μM inhibitor, 5 μM each dNTP, 30 minute-reaction, 37° C.
# [2] = molecular target: HIV-1 reverse transcriptase (Human immunodeficiency virus type 1 group M subtype B, UniProt P04585); conditions: selectivity measured in initiation and elongation (Rigourd and al., 2000); cited from earlier work
# [3] = test system: HIV-1 reverse transcriptase; assay: Synthesis of product corresponding to reverse transcription initiation (addition of first 6 nucleotides to biotinylated tRNAHis primer), scintillation proximity assay; format: biochemical; conditions: calculated
# Method: FIG. 7: (−) Synthesis of a Product Corresponding to Retrotranscription Initiation from Biotinylated vRNA complex [His-AC-GAC]/tRNA^His
# The signal attenuation is detected with […] of AZTTP. The numbers in bold and italic on the top of histograms corresponds to the percent of residual signal compared to the control without inhibitor.
# Reactions are stopped by adding EDTA 25 mM and extension product detection is performed as previously described.
Structure (SMILES),inhibition rate of (−) strand strong-stop DNA synthesis [1],AZTTP incorporation selectivity against dTTP [2],"Theoretical signal ([3]; [dTTP]/[AZTTP] = 2, selectivity (AZTTP/dTTP) = 0.6) [%]","Theoretical signal ([3]; [dTTP]/[AZTTP] = 2, selectivity (AZTTP/dTTP) = 0.7) [%]","Theoretical signal ([3]; [dTTP]/[AZTTP] = 50, selectivity (AZTTP/dTTP) = 0.6) [%]","Theoretical signal ([3]; [dTTP]/[AZTTP] = 50, selectivity (AZTTP/dTTP) = 0.7) [%]"
Cc1cn([C@H]2C[C@H](N=[N+]=[N-])[C@@H](CO[P@](=O)(O)O[P@](=O)(O)OP(=O)(O)O)O2)c(=O)[nH]c1=O [AZTTP],about 90%,0.6 and 0.7,60.7,56.7,97.7,97.3
Cc1cn([C@H]2C=C[C@@H](COP(=O)(O)OP(=O)(O)OP(=O)(O)O)O2)c(=O)[nH]c1=O [d4TTP],80%,–,–,–,–,–
